According to US4746736A, “Carbapenem antibiotics” (priority 1986, dated 1988):
In brackets after ≈: the same amount, converted by molar mass. Like-named read-outs stand apart in the source and are kept apart here.

Assays:
E. cloacae A-9656 = experiment: In vitro MIC by tube dilution, E. cloacae A-9656; format: cell-based
E. coli A15119 = experiment: In vitro MIC by tube dilution, E. coli A15119; format: cell-based; conditions: E. coli A15119
P. morganii A15153 = experiment: In vitro MIC by tube dilution, P. morganii (M. morganii) A15153; format: cell-based
[1] = system: S. aureus A-9606 (Pen-res.); experiment: In vitro MIC by tube dilution, S. aureus A-9606 (Pen-res.); format: cell-based; conditions: S. aureus A-9606 (Pen-res)
S. aureus A-9537 = experiment: In vitro MIC by tube dilution, S. aureus A-9537; format: cell-based
S. marcescens A20019 = experiment: In vitro MIC by tube dilution, S. marcescens A20019; format: cell-based
K. pneumoniae A20468 = experiment: In vitro MIC by tube dilution, K. pneumoniae A20468; format: cell-based
E. cloacae A-9659 = experiment: In vitro MIC by tube dilution, E. cloacae A-9659; format: cell-based
S. pneumoniae A-9585 = experiment: In vitro MIC by tube dilution, S. pneumoniae A-9585; format: cell-based
P. mirabilis A-9900 = experiment: In vitro MIC by tube dilution, P. mirabilis A-9900; format: cell-based
P. rettgeri A22424 = experiment: In vitro MIC by tube dilution, P. rettgeri A22424; format: cell-based
P. aeruginosa A21213 = experiment: In vitro MIC by tube dilution, P. aeruginosa A21213; format: cell-based
K. pneumoniae A-9664 = experiment: In vitro MIC by tube dilution, K. pneumoniae A-9664; format: cell-based
S. pyogenes A9604 = experiment: In vitro MIC by tube dilution, S. pyogenes A9604; format: cell-based
E. coli A20341-1 = experiment: In vitro MIC by tube dilution, E. coli A20341-1; format: cell-based
P. aeruginosa A-9843A = experiment: In vitro MIC by tube dilution, P. aeruginosa A-9843A; format: cell-based; conditions: P. aeruginosa A-9843a
S. faecalis A20688 = experiment: In vitro MIC by tube dilution, S. faecalis A20688; format: cell-based
[2] = Blood levels in mice after intramuscular administration; conditions: 20 mg/kg i.m., mice (compiled table)
Description: Compounds were solubilized in 0.1 M phosphate buffer pH 7.
Values are from a single test; 4 mice used per compound.
Compounds were solubilized in 0.1 M phosphate buffer, pH 7.
Values based on a single test; 4 mice per compound.

P. vulgaris A21559 = experiment: In vitro MIC by tube dilution, P. vulgaris A21559; format: cell-based
[3] = Enterobacter cloacae, A9656, E. cloacae A-9656, read-out: MIC
[4] = Escherichia coli, read-out: MIC
[5] = Morganella morganii, A15153, M. morganii A15153, read-out: MIC
[6] = Staphylococcus aureus, read-out: MIC
[7] = Staphylococcus aureus, A9537, S. aureus A-9537, no serum, read-out: MIC
[8] = Serratia marcescens, read-out: MIC
[9] = Klebsiella pneumoniae, A20468, K. pneumoniae A20468, read-out: MIC
[10] = Enterobacter cloacae, A9659, E. cloacae A-9659, read-out: MIC
[11] = Proteus mirabilis, A9900, P. mirabilis A-9900, read-out: MIC
[12] = Providencia rettgeri, A22424, P. rettgeri A22424, read-out: MIC
[13] = Klebsiella pneumoniae, A9664, read-out: MIC
[14] = Escherichia coli, A203411, read-out: MIC
[15] = Staphylococcus aureus, A9537, S. aureus A-9537 +50% serum, read-out: MIC
[16] = Pseudomonas aeruginosa, A9843A, read-out: MIC
[17] = Enterococcus faecalis, A20688, S. faecalis A20688, read-out: MIC

C[C@@H](O)[C@H]1C(=O)N2C(C(=O)[O-])=C(SCc3n(C)nc[n+]3C)C[C@H]12 [Example 19, 3-[5-(1,4-Dimethyl-1,2,4-triazolium)methanethio]-6α-[1-(R)-hydroxyethyl]-7-oxo-1-azabicyclo[3.2.0]hept-2-ene-2-carboxylate]
MIC (E. cloacae A-9656; [3]): 0.03 µg/mL (≈ 0.0887 µM)
MIC (E. coli A15119; [4]): 0.008 µg/mL (≈ 0.0236 µM)
MIC (P. morganii A15153; [5]): 0.06 µg/mL (≈ 0.177 µM)
MIC [1, 6]: 0.016 µg/mL (≈ 0.0473 µM)
MIC (S. aureus A-9537; [7]): 0.004 µg/mL (≈ 0.0118 µM)
MIC (S. marcescens A20019; [8]): 0.03 µg/mL (≈ 0.0887 µM)
MIC (K. pneumoniae A20468; [9]): 0.06 µg/mL (≈ 0.177 µM)
MIC (E. cloacae A-9659; [10]): 0.03 µg/mL (≈ 0.0887 µM)
MIC (S. pneumoniae A-9585; Streptococcus pneumoniae, A9585, S. pneumoniae A-9585, read-out: MIC): 0.002 µg/mL (≈ 0.00591 µM)
MIC (P. mirabilis A-9900; [11]): 0.03 µg/mL (≈ 0.0887 µM)
MIC (P. rettgeri A22424; [12]): 0.13 µg/mL (≈ 0.384 µM)
MIC (P. aeruginosa A21213; Pseudomonas aeruginosa, A21213, P. aeruginosa A21213, read-out: MIC): 0.06 µg/mL (≈ 0.177 µM)
MIC (K. pneumoniae A-9664; [13]): 0.03 µg/mL (≈ 0.0887 µM)
MIC (S. pyogenes A9604; Streptococcus pyogenes, A9604, S. pyogenes A-9604, read-out: MIC): 0.002 µg/mL (≈ 0.00591 µM)
MIC (E. coli A20341-1; [14]): 0.008 µg/mL (≈ 0.0236 µM)

Cc1c(CSC2=C(C(=O)[O-])N3C(=O)[C@H]([C@@H](C)O)[C@H]3C2)ccc[n+]1C [Example 14, 3-(2-Methyl-N-methylpyridine-3-yl-methanethio)-6α-[1-(R)-hydroxyethyl]-7-oxo-1-azabicyclo(3.2.0)hept-2-ene-2-carboxylate]
MIC (E. cloacae A-9656; [3]): 0.03 µg/mL (≈ 0.0861 µM)
MIC (E. coli A15119; [4]): 0.008 µg/mL (≈ 0.023 µM)
MIC (P. morganii A15153; Morganella morganii, M. morganii A15153, read-out: MIC): 0.03 µg/mL (≈ 0.0861 µM)
MIC [1, 6]: 0.016 µg/mL (≈ 0.0459 µM)
MIC (S. aureus A-9537; [15]): 0.03 µg/mL (≈ 0.0861 µM)
MIC (S. aureus A-9537; [7]): 0.008 µg/mL (≈ 0.023 µM)
MIC (P. aeruginosa A-9843A; [16]): 8 µg/mL (≈ 23 µM)
MIC (S. marcescens A20019; [8]): 0.016 µg/mL (≈ 0.0459 µM)
MIC (K. pneumoniae A20468; Klebsiella pneumoniae, K. pneumoniae A20468, read-out: MIC): 0.03 µg/mL (≈ 0.0861 µM)
MIC (E. cloacae A-9659; [10]): 0.03 µg/mL (≈ 0.0861 µM)
MIC (P. mirabilis A-9900; [11]): 0.016 µg/mL (≈ 0.0459 µM)
MIC (P. rettgeri A22424; [12]): 0.06 µg/mL (≈ 0.172 µM)
MIC (S. faecalis A20688; [17]): 0.13 µg/mL (≈ 0.373 µM)
MIC (K. pneumoniae A-9664; [13]): 0.03 µg/mL (≈ 0.0861 µM)
MIC (E. coli A20341-1; [14]): 0.008 µg/mL (≈ 0.023 µM)

C[C@@H](O)C1C(=O)N2C(C(=O)[O-])=C(SCc3cn(C)n[n+]3C)CC12 (stereo partly drawn) [Example 15 "C", 3-[4-(N,N-dimethyl-1,2,3-triazolium)methylthio]-6α-[1-(R)-hydroxyethyl]-7-oxo-1-azabicyclo(3.2.0)hept-2-ene-2-carboxylate]
MIC (E. cloacae A-9656; E. cloacae A-9656): 0.13 µg/mL (≈ 0.384 µM)
MIC (E. coli A15119): 0.06 µg/mL (≈ 0.177 µM)
MIC (P. morganii A15153; M. morganii A15153): 0.25 µg/mL (≈ 0.739 µM)
MIC [1]: 0.03 µg/mL (≈ 0.0887 µM)
MIC (S. aureus A-9537; S. aureus A-9537 +50% serum): 0.06 µg/mL (≈ 0.177 µM)
MIC (S. aureus A-9537; S. aureus A-9537, no serum): 0.016 µg/mL (≈ 0.0473 µM)
MIC (P. aeruginosa A-9843A): 8 µg/mL (≈ 23.6 µM)
AUC [2]: 7300 ng·h/mL
T1/2 [2]: 10 min
MIC (P. vulgaris A21559; P. vulgaris A21559): 0.06 µg/mL (≈ 0.177 µM)
MIC (S. marcescens A20019): 0.13 µg/mL (≈ 0.384 µM)
MIC (K. pneumoniae A20468; K. pneumoniae A20468): 0.13 µg/mL (≈ 0.384 µM)
MIC (E. cloacae A-9659; E. cloacae A-9659): 0.13 µg/mL (≈ 0.384 µM)
MIC (S. pneumoniae A-9585; S. pneumoniae A-9585): 0.0005 µg/mL (≈ 0.00148 µM)
MIC (P. mirabilis A-9900; P. mirabilis A-9900): 0.06 µg/mL (≈ 0.177 µM)
MIC (P. rettgeri A22424; P. rettgeri A22424): 0.25 µg/mL (≈ 0.739 µM)
MIC (P. aeruginosa A21213; P. aeruginosa A21213): 0.5 µg/mL (≈ 1.48 µM)
MIC (S. faecalis A20688; S. faecalis A20688): 0.5 µg/mL (≈ 1.48 µM)
MIC (K. pneumoniae A-9664): 0.06 µg/mL (≈ 0.177 µM)
MIC (S. pyogenes A9604; S. pyogenes A-9604): 0.0003 µg/mL (≈ 0.000887 µM)
MIC (E. coli A20341-1): 0.03 µg/mL (≈ 0.0887 µM)

C[C@@H](O)[C@H]1C(=O)N2C(C(=O)[O-])=C(SCc3cn(CC(=O)O)n[n+]3C)C[C@H]12 [Example 18, Potassium 3-[4-(1-carboxylatomethyl-3-methyl-1,2,3-triazolium)-methanethio]-6α-[1-(R)-hydroxyethyl]-7-oxo-1-azabicyclo[3.2.0]hept-2-ene-2-carboxylate]
MIC (E. cloacae A-9656; [3]): 125 µg/mL
MIC (P. morganii A15153; [5]): 32 µg/mL
MIC [1, 6]: > 125 µg/mL
MIC (S. aureus A-9537; [7]): 32 µg/mL
MIC (P. vulgaris A21559; Proteus vulgaris, A21559, P. vulgaris A21559, read-out: MIC): 32 µg/mL
MIC (S. marcescens A20019; [8]): 32 µg/mL
MIC (P. mirabilis A-9900; [11]): 32 µg/mL
MIC (P. rettgeri A22424; [12]): 32 µg/mL
MIC (K. pneumoniae A-9664; [13]): 32 µg/mL

C[C@@H](O)[C@H]1C(=O)N2C(C(=O)[O-])=C(SCc3n(Cc4ccccc4)cc[n+]3C)C[C@H]12 [Example 13, 3-(N-Methyl-N'-benzylimidazole-2-yl-methanethio)-6α-[1-(R)-hydroxyethyl]-7-oxo-1-azabicyclo(3.2.0)hept-2-ene-2-carboxylate]
MIC (E. cloacae A-9656; [3]): 0.03 µg/mL (≈ 0.0726 µM)
MIC (E. coli A15119; [4]): 0.004 µg/mL (≈ 0.00967 µM)
MIC (P. morganii A15153; [5]): 0.016 µg/mL (≈ 0.0387 µM)
MIC [1, 6]: 0.008 µg/mL (≈ 0.0193 µM)
MIC (S. aureus A-9537; [15]): 0.016 µg/mL (≈ 0.0387 µM)
MIC (S. aureus A-9537; [7]): 0.008 µg/mL (≈ 0.0193 µM)
MIC (P. aeruginosa A-9843A; [16]): 32 µg/mL (≈ 77.4 µM)
MIC (S. marcescens A20019; [8]): 0.016 µg/mL (≈ 0.0387 µM)
MIC (K. pneumoniae A20468; [9]): 0.13 µg/mL (≈ 0.314 µM)
MIC (E. cloacae A-9659; [10]): 0.06 µg/mL (≈ 0.145 µM)
MIC (P. mirabilis A-9900; [11]): 0.016 µg/mL (≈ 0.0387 µM)
MIC (S. faecalis A20688; [17]): 0.13 µg/mL (≈ 0.314 µM)
MIC (K. pneumoniae A-9664; [13]): 0.03 µg/mL (≈ 0.0726 µM)
MIC (E. coli A20341-1; [14]): 0.008 µg/mL (≈ 0.0193 µM)
